According to ChEMBL document CHEMBL3297726, “Isolation and structure elucidation of cystargamide, a lipopeptide from Kitasatospora cystarginea” (J Nat Prod, 2014):
Active and inactive are the calls of the source. Positions of bridges follow the written chain, without caps; N, C: chain ends. Non-standard residues stand in square brackets, D forms with d. Residues, ends and D or L forms follow the SMILES beside them. *: point of attachment. Trp(5-OH) = N[C@@H](Cc1c[nH]c2ccc(O)cc12)C(=O)O; Hpg = N[C@H](C(=O)O)c1ccc(O)cc1; X1 = CCCCCCCC1OC1C(=O)*

Tests used:
Assay type in all cases: functional, organism-based
Enterococcus faecium = assay: Antimicrobial activity against vancomycin-resistant Enterococcus faecium EF379 assessed as growth inhibition at 128 ug/ml
Staphylococcus aureus = assay: Antimicrobial activity against methicillin-resistant Staphylococcus aureus ATCC 33591 assessed as growth inhibition at 128 ug/ml
Staphylococcus warneri = assay: Antimicrobial activity against Staphylococcus warneri ATCC 17917 assessed as growth inhibition at 128 ug/ml
Candida albicans = assay: Antimicrobial activity against Candida albicans ATCC 14035 assessed as growth inhibition at 128 ug/ml

Measured: growth inhibition (GI)

CCCCCCCC1OC1C(=O)N[C@@H]1C(=O)N[C@@H](Cc2ccccc2)C(=O)N[C@@H](CCC(=O)O)C(=O)N[C@@H](Cc2c[nH]c3ccc(O)cc23)C(=O)N[C@@H](c2ccc(O)cc2)C(=O)NCC(=O)O[C@@H]1C (some centres undefined) (X1-TFE[Trp(5-OH)][Hpg]G; ester 1-C)
inactive: all assays above
